In EP1202975B1, “SUBSTITUTED POLYCYCLIC ARYL AND HETEROARYL PYRAZINONES USEFUL FOR SELECTIVE INHIBITION OF THE COAGULATION CASCADE” (Pharmacia Corporation, priority 1999, dated 2000):
Like-named read-outs stand apart in the source and are kept apart here.

How the values were obtained:
[1] = target: T1, TF-VIIa (Homo sapiens, UniProt P08709); assay: TF-VIIa Assay; assay type: biochemical
T1 construct: 2nM recombinant human factor VIIa; purchased American Diagnostica, Greenwich CT; host or cells: soluble TF made in house in E. coli

[2] = target: Human factor Xa (Homo sapiens, UniProt P00742); assay: Xa Assay; settings: for IC50: read-out: IC50 or % Inhibition Factor Xa (30 µM), cells given as a plain number (IC50); for IC50 or % Inhibition Factor Xa (30 µM): % inhibition at 30 µM
[3] = cells given as a plain number (IC50); read-out: IC50 or % Inhibition TF-VIIa (30 µM)
[4] = read-out: IC50 or % Inhibition TF-VIIa (30 µM); cells given as a plain number (IC50)

Human factor Xa, sequence (P00742 235-488 limits assumed): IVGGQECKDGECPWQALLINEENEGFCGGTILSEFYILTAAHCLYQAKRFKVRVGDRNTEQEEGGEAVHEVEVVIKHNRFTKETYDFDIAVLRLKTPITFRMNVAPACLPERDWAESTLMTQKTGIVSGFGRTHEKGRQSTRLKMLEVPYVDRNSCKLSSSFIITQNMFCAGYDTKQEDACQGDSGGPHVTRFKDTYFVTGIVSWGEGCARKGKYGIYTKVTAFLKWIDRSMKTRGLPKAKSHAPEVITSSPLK
Human factor Xa, sequence (P00742 41-179 limits assumed): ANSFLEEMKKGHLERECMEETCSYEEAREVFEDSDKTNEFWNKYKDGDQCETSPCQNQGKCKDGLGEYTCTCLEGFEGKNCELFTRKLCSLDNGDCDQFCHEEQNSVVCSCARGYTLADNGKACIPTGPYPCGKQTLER
T1 sequence (P08709 213-466 limits assumed): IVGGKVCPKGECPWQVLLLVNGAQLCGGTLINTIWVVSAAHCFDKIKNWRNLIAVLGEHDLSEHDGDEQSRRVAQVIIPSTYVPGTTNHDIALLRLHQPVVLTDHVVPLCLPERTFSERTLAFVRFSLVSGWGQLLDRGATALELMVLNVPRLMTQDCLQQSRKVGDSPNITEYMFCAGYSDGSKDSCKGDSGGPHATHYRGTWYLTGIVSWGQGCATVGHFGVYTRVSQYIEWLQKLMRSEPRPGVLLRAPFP
T1 sequence (P08709 61-212 limits assumed): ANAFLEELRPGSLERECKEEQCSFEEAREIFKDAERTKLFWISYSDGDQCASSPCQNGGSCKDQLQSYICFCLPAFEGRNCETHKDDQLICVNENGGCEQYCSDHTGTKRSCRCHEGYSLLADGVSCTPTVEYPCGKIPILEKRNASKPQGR
T1 sequence (P13726 33-251 partner limits assumed): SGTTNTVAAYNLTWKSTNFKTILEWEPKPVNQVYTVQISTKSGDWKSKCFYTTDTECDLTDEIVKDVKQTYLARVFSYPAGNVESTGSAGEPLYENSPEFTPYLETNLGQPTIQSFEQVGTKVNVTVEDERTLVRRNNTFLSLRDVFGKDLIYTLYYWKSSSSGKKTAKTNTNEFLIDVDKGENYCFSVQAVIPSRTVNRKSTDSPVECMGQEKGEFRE

| IC50 [2] | IC50 [1, 3] | IC50 [1, 4] | SMILES | further results |
| --- | --- | --- | --- | --- |
|  | 1200 nM |  | CC(C)CCNc1nc(Cl)c(-c2ccccc2)n(CC(=O)NCc2ccc(C(=N)N)cc2)c1=O [1517-40] | IC50 or % Inhibition Factor Xa (30 µM) [2]: 0% |
|  | 2200 nM |  | CC(C)(C)CCNc1nc(Cl)c(-c2ccccc2)n(CC(=O)NCc2ccc(C(=N)N)cc2)c1=O [1517-41] | IC50 or % Inhibition Factor Xa (30 µM) [2]: 0% |
| > 30000 nM |  | 270 nM | N=C(N)c1ccc(CNC(=O)Cn2c(-c3ccccc3)c(Cl)nc(NCCN3CCCC3)c2=O)cc1 [1522-08] |  |
| > 30000 nM | 840 nM |  | CC(C)CCNc1nc(Cl)c(-c2ccccc2)n(CC(=O)NCc2ccc(C(=N)N)cc2)c1=O [1522-14] |  |
| > 30000 nM |  | 540 nM | CC(C)C(C)Nc1nc(Cl)c(-c2ccccc2)n(CC(=O)NCc2ccc(C(=N)N)cc2)c1=O (centres unmarked) [1522-15] |  |
| > 30000 nM |  | 620 nM | CC(C)CC(C)Nc1nc(Cl)c(-c2ccccc2)n(CC(=O)NCc2ccc(C(=N)N)cc2)c1=O (centres unmarked) [1522-17] |  |
| > 30000 nM | 1700 nM |  | CC(C)(C)CCNc1nc(Cl)c(-c2ccccc2)n(CC(=O)NCc2ccc(C(=N)N)cc2)c1=O [1522-18] |  |
| > 30000 nM |  | 2200 nM | CC(CNc1nc(Cl)c(-c2ccccc2)n(CC(=O)NCc2ccc(C(=N)N)cc2)c1=O)N(C)C (centres unmarked) [1522-23] |  |
| > 30000 nM | 500 nM |  | CC(C)CNc1nc(Cl)c(-c2ccccc2)n(CC(=O)NCc2ccc(C(=N)N)cc2)c1=O [1522-34] |  |
| > 30000 nM |  | 4000 nM | CCN1CC(Nc2nc(Cl)c(-c3ccccc3)n(CC(=O)NCc3ccc(C(=N)N)cc3)c2=O)CN1CC [1522-35] |  |
| > 30000 nM | 1000 nM |  | N=C(N)c1ccc(CNC(=O)Cn2c(-c3ccccc3)c(Cl)nc(NC3CCCCCC3)c2=O)cc1 [1522-36] |  |
| > 30000 nM |  | 2000 nM | N=C(N)c1ccc(CNC(=O)Cn2c(-c3ccccc3)c(Cl)nc(NCCNc3ncc(C(F)(F)F)cc3Cl)c2=O)cc1 [1522-37] |  |
| > 30000 nM |  | 1000 nM | N=C(N)c1ccc(CNC(=O)Cn2c(-c3ccccc3)c(Cl)nc(NCCNc3ncccc3C(F)(F)F)c2=O)cc1 [1522-38] |  |

Further lines, the compound ahead of its results:

| SMILES | IC50 [2] | IC50 [1, 3] | IC50 [1, 4] | further results |
| --- | --- | --- | --- | --- |
| N=C(N)c1ccc(CNC(=O)Cn2c(-c3ccc(C(F)(F)F)cc3)c(Cl)nc(NC3CCC3)c2=O)cc1 [1515-20] | > 30000 nM |  |  | IC50 or % Inhibition TF-VIIa (30 µM) [1]: 32% |
| N=C(N)c1ccc(CNC(=O)Cn2c(-c3cccc(Br)c3)c(Cl)nc(NC3CCC3)c2=O)cc1 [1515-22] | > 30000 nM | 4200 nM |  |  |
| N=C(N)c1ccc(CNC(=O)Cn2c(-c3ccccc3F)c(Cl)nc(NC3CCC3)c2=O)cc1 [1515-23] | > 30000 nM |  | 6200 nM |  |
| N=C(N)c1ccc(CNC(=O)Cn2c(-c3ccccc3C(F)(F)F)c(Cl)nc(NC3CCC3)c2=O)cc1 [1515-24] | > 30000 nM |  | 1600 nM |  |
| N=C(N)c1ccc(CNC(=O)Cn2c(-c3cccc(C(F)(F)F)c3)c(Cl)nc(NCCc3ccccc3)c2=O)cc1 [1515-25] | > 30000 nM | 2900 nM |  |  |
| COc1ccccc1-c1c(Cl)nc(NCCc2ccccc2)c(=O)n1CC(=O)NCc1ccc(C(=N)N)cc1 [1515-26] | > 30000 nM | 1600 nM |  |  |
| N=C(N)c1ccc(CNC(=O)Cn2c(-c3sccc3Br)c(Cl)nc(NCCc3ccccc3)c2=O)cc1 [1515-27] | > 30000 nM |  | 1100 nM |  |
| N=C(N)c1ccc(CNC(=O)Cn2c(-c3cccs3)c(Cl)nc(NCCc3ccccc3)c2=O)cc1 [1515-30] | > 30000 nM |  | 1200 nM |  |
| N=C(N)c1ccc(CNC(=O)Cn2c(-c3cccc(F)c3)c(Cl)nc(NCCc3ccccc3)c2=O)cc1 [1515-33] | > 30000 nM | 2300 nM |  |  |
| N=C(N)c1ccc(CNC(=O)Cn2c(-c3cccc(Br)c3)c(Cl)nc(NCCc3ccccc3)c2=O)cc1 [1515-34] | > 30000 nM |  | 4400 nM |  |
| N=C(N)c1ccc(CNC(=O)Cn2c(-c3ccccc3F)c(Cl)nc(NCCc3ccccc3)c2=O)cc1 [1515-35] | > 30000 nM | 1800 nM |  |  |
| CCCCNc1nc(Cl)c(-c2ccccc2)n(CC(=O)NCc2ccc(C(=N)N)cc2)c1=O [1517-35] |  |  |  | IC50 or % Inhibition TF-VIIa (30 µM) ([1]; % inhibition at 30 µM): 33%; IC50 or % Inhibition Factor Xa (30 µM) [2]: 0% |
